Results published in US20240376084A1, “INHIBITORS OF ALPHA-HEMOLYSIN OF STAPHYLOCOCCUS AUREUS” (Helmholtz-Zentrum Fur Infektionsforschung GmbH, priority 2021, published 2024).

How the values were obtained:
[1] = target: S. aureus Alpha hemolysin (Staphylococcus aureus, UniProt P09616); test: cell-based
[2] = target: hemolysin alpha from Staphylococcus aureus (Staphylococcus aureus, UniProt P09616); test: cell-based
Sequence of hemolysin alpha from Staphylococcus aureus (P09616 27-319 limits assumed): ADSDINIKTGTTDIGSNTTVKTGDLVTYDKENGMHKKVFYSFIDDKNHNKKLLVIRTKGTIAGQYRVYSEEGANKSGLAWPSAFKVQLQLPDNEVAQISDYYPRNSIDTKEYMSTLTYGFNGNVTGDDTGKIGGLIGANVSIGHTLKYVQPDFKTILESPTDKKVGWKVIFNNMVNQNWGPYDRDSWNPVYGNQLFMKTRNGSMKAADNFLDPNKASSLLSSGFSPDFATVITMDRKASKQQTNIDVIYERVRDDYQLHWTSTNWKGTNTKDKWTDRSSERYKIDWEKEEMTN

Sequence of S. aureus Alpha hemolysin (P09616 27-319 limits assumed): as above

SMILES	EC50 ([1]; A549-LDH Assay activity)	IC50 [2]	EC50 [2]	EC50 ([1]; LDH Assay EC50)
Cc1cc(NS(=O)(=O)c2cc3[nH]c(=O)c(=O)[nH]c3cc2C)ccc1Br [Compound 171, N-(4-bromo-3-methylphenyl)-7-methyl-2,3-dioxo-1,2,3,4-tetrahydroquinoxaline-6-sulfonamide]	30 to 100 nM	100 to 1000 nM	–	–
O=c1[nH]c2cc(F)c(S(=O)(=O)Nc3ccc(-c4cccc(N5CCCC5)c4)c(Cl)c3)cc2[nH]c1=O [Compound 27, N-(2-chloro-3′-(pyrrolidin-1-yl)-[1,1′-biphenyl]-4-yl)-7-fluoro-2,3-dioxo-1,2,3,4-tetrahydroquinoxaline-6-sulfonamide]	1000 to 6000 nM	< 30 nM	–	–
Cc1cc2[nH]c(=O)c(=O)[nH]c2cc1S(=O)(=O)Nc1ccc(-c2ccccc2)cc1 [Compound 61, N-([1,1′-biphenyl]-4-yl)-7-methyl-2,3-dioxo-1,2,3,4-tetrahydroquinoxaline-6-sulfonamide]	30 to 100 nM	< 30 nM	–	–
Cc1ccc(-c2ccc(NS(=O)(=O)c3cc4[nH]c(=O)c(=O)[nH]c4cc3C)cc2Cl)cc1 [Compound 38, N-(2-chloro-4′-methyl-[1,1′-biphenyl]-4-yl)-7-methyl-2,3-dioxo-1,2,3,4-tetrahydroquinoxaline-6-sulfonamide]	100 to 1000 nM	30 to 100 nM	–	–
Cc1cc2[nH]c(=O)c(=O)[nH]c2cc1S(=O)(=O)Nc1ccc(-c2cc(F)cc(F)c2)c(Cl)c1 [Compound 309, N-[3-chloro-4-(3,5-difluorophenyl)phenyl]-7-methyl-2,3-dioxo-1,4-dihydroquinoxaline-6-sulfonamide]	100 to 1000 nM	–	< 30 nM	–
Cc1ccc(-c2ccc(NS(=O)(=O)c3cc4[nH]c(=O)c(=O)[nH]c4cc3C)cc2Cl)o1 [Compound 69, N-(3-chloro-4-(5-methylfuran-2-yl)phenyl)-7-methyl-2,3-dioxo-1,2,3,4-tetrahydroquinoxaline-6-sulfonamide]	1000 to 6000 nM	30 to 100 nM	–	–
COc1ncc(-c2ccc(NS(=O)(=O)c3cc4[nH]c(=O)c(=O)[nH]c4cc3C)cc2Cl)cn1 [Compound 260, N-[3-chloro-4-(2-methoxypyrimidin-5-yl)phenyl]-7-methyl-2,3-dioxo-1,4-dihydroquinoxaline-6-sulfonamide]	100 to 1000 nM	–	100 to 1000 nM	–
O=c1[nH]c2cc(F)c(S(=O)(=O)Nc3ccc(OC(F)(F)F)cc3)cc2[nH]c1=O [Compound 147, 7-fluoro-2,3-dioxo-N-(4-(trifluoromethoxy)phenyl)-1,2,3,4-tetrahydroquinoxaline-6-sulfonamide]	100 to 1000 nM	100 to 1000 nM	–	–
Cc1cc2[nH]c(=O)c(=O)[nH]c2cc1S(=O)(=O)Nc1ccc(C2CCC2)cc1 [Compound 362, N-(4-cyclobutylphenyl)-7-methyl-2,3-dioxo-1,4-dihydroquinoxaline-6-sulfonamide]	30 to 100 nM	–	100 to 1000 nM	–
C#Cc1ccc(-c2ccc(NS(=O)(=O)c3cc4[nH]c(=O)c(=O)[nH]c4cc3C)cc2C#C)cc1 [Compound 251, N-(2,4′-diethynyl-[1,1′-biphenyl]-4-yl)-7-methyl-2,3-dioxo-1,2,3,4-tetrahydroquinoxaline-6-sulfonamide]	< 30 nM	–	< 30 nM	–
CN(C)c1cccc(-c2ccc(NS(=O)(=O)c3cc4[nH]c(=O)c(=O)[nH]c4cc3Cl)cc2Cl)c1 [Compound 9, 7-chloro-N-(2-chloro-3′-(dimethylamino)-[1,1′-biphenyl]-4-yl)-2,3-dioxo-1,2,3,4-tetrahydroquinoxaline-6-sulfonamide]	100 to 1000 nM	< 30 nM	–	–
O=c1[nH]c2cc(Cl)c(S(=O)(=O)Nc3ccc(OC(F)(F)F)cc3)cc2[nH]c1=O [Compound 47, 7-chloro-2,3-dioxo-N-(4-(trifluoromethoxy)phenyl)-1,2,3,4-tetrahydroquinoxaline-6-sulfonamide]	30 to 100 nM	30 to 100 nM	–	–
CCc1ccccc1-c1ccc(NS(=O)(=O)c2cc3[nH]c(=O)c(=O)[nH]c3cc2C)cc1 [Compound 113, N-(2′-ethyl-[1,1′-biphenyl]-4-yl)-7-methyl-2,3-dioxo-1,2,3,4-tetrahydroquinoxaline-6-sulfonamide]	100 to 1000 nM	100 to 1000 nM	–	–
Cc1cc2[nH]c(=O)c(=O)[nH]c2cc1S(=O)(=O)Nc1ccc(-c2ccc(F)cc2)c(C(F)(F)F)c1 [Compound 326, N-[4-(4-fluorophenyl)-3-(trifluoromethyl)phenyl]-7-methyl-2,3-dioxo-1,4-dihydroquinoxaline-6-sulfonamide]	30 to 100 nM	–	< 30 nM	–
Cc1cc2[nH]c(=O)c(=O)[nH]c2cc1S(=O)(=O)Nc1ccc(-c2ccc(S(C)(=O)=O)cc2)c(Cl)c1 [Compound 398, N-[3-chloro-4-(4-methylsulfonylphenyl)phenyl]-7-methyl-2,3-dioxo-1,4-dihydroquinoxaline-6-sulfonamide]	1000 to 6000 nM	–	1000 to 3500 nM	–
Cc1cc(NS(=O)(=O)c2cc3[nH]c(=O)c(=O)[nH]c3cc2F)ccc1-c1ccoc1 [Compound 168, 7-fluoro-N-(4-(furan-3-yl)-3-methylphenyl)-2,3-dioxo-1,2,3,4-tetrahydroquinoxaline-6-sulfonamide]	1000 to 6000 nM	100 to 1000 nM	–	–

SMILES	EC50 ([1]; A549-LDH Assay activity)	IC50 [2]	EC50 [2]	EC50 ([1]; LDH Assay EC50)
COc1cc2[nH]c(=O)c(=O)[nH]c2cc1S(=O)(=O)Nc1ccc(SC(F)(F)F)cc1 [Compound 399, 7-methoxy-2,3-dioxo-N-[4-(trifluoromethylsulfanyl)phenyl]-1,4-dihydroquinoxaline-6-sulfonamide]	100 to 1000 nM	–	1000 to 3500 nM	–
COc1ccc(-c2ccc(NS(=O)(=O)c3cc4[nH]c(=O)c(=O)[nH]c4cc3C)cc2C(F)(F)F)cc1F [Compound 345, N-[4-(3-fluoro-4-methoxy-phenyl)-3-(trifluoromethyl)phenyl]-7-methyl-2,3-dioxo-1,4-dihydroquinoxaline-6-sulfonamide]	< 30 nM	–	< 30 nM	–
Cc1cc2[nH]c(=O)c(=O)[nH]c2cc1S(=O)(=O)Nc1ccc(-n2ccnc2)cc1 [Compound 292, N-(4-imidazol-1-ylphenyl)-7-methyl-2,3-dioxo-1,4-dihydroquinoxaline-6-sulfonamide]	1000 to 6000 nM	–	1000 to 3500 nM	–
COc1ccccc1-c1ccc(NS(=O)(=O)c2cc3[nH]c(=O)c(=O)[nH]c3cc2C)cc1 [Compound 114, N-(2′-methoxy-[1,1′-biphenyl]-4-yl)-7-methyl-2,3-dioxo-1,2,3,4-tetrahydroquinoxaline-6-sulfonamide]	100 to 1000 nM	100 to 1000 nM	–	–
Cc1cc2[nH]c(=O)c(=O)[nH]c2cc1S(=O)(=O)Nc1ccc(-c2ccc(OC3CC3)cc2)c(Cl)c1 [Compound 268, N-[3-chloro-4-[4-(cyclopropoxy)phenyl]phenyl]-7-methyl-2,3-dioxo-1,4-dihydroquinoxaline-6-sulfonamide]	100 to 1000 nM	–	30 to 100 nM	–
Cc1cc2[nH]c(=O)c(=O)[nH]c2cc1S(=O)(=O)Nc1ccc(-c2ccccc2CO)c(Cl)c1 [Compound 78, N-(2-chloro-2′-(hydroxymethyl)-[1,1′-biphenyl]-4-yl)-7-methyl-2,3-dioxo-1,2,3,4-tetrahydroquinoxaline-6-sulfonamide]	100 to 1000 nM	100 to 1000 nM	–	–
Cc1cc2[nH]c(=O)c(=O)[nH]c2cc1S(=O)(=O)Nc1ccc(-c2ccn3ccnc3c2)c(Cl)c1 [Compound 336, N-(3-chloro-4-imidazo[1,2-a]pyridin-7-yl-phenyl)-7-methyl-2,3-dioxo-1,4-dihydroquinoxaline-6-sulfonamide]	100 to 1000 nM	–	30 to 100 nM	–
Cc1ccc(-c2ccc(NS(=O)(=O)c3cc4[nH]c(=O)c(=O)[nH]c4cc3Cl)cc2Cl)o1 [Compound 146, 7-chloro-N-(3-chloro-4-(5-methylfuran-2-yl)phenyl)-2,3-dioxo-1,2,3,4-tetrahydroquinoxaline-6-sulfonamide]	1000 to 6000 nM	100 to 1000 nM	–	–
[2H]C([2H])([2H])c1cc2[nH]c(=O)c(=O)[nH]c2cc1S(=O)(=O)Nc1ccc(OC(F)(F)F)cc1 [Compound 217, 7-(methyl-d3)-2,3-dioxo-N-(4-(trifluoromethoxy)phenyl)-1,2,3,4-tetrahydroquinoxaline-6-sulfonamide]	< 30 nM	–	< 30 nM	–
Cc1cc2[nH]c(=O)c(=O)[nH]c2cc1S(=O)(=O)Nc1ccc(-c2cccnc2)c(Cl)c1 [Compound 29, N-(3-chloro-4-(pyridin-3-yl)phenyl)-7-methyl-2,3-dioxo-1,2,3,4-tetrahydroquinoxaline-6-sulfonamide]	100 to 1000 nM	< 30 nM	–	–
Cc1cc2[nH]c(=O)c(=O)[nH]c2cc1S(=O)(=O)Nc1ccc(C2CC2)cc1 [drawing 470 (R^2 = CH3)]	–	–	63 nM	18 nM
Cc1cc2[nH]c(=O)c(=O)[nH]c2cc1S(=O)(=O)Nc1ccc(-c2cncnc2)c(Cl)c1 [Compound 66, N-(3-chloro-4-(pyrimidin-5-yl)phenyl)-7-methyl-2,3-dioxo-1,2,3,4-tetrahydroquinoxaline-6-sulfonamide]	100 to 1000 nM	30 to 100 nM	–	–
Cc1cc2[nH]c(=O)c(=O)[nH]c2cc1S(=O)(=O)Nc1ccc(-c2ccc(C#N)cc2)c(C(F)(F)F)c1 [Compound 348, N-[4-(4-cyanophenyl)-3-(trifluoromethyl)phenyl]-7-methyl-2,3-dioxo-1,4-dihydroquinoxaline-6-sulfonamide]	100 to 1000 nM	–	< 30 nM	–
Cc1cc2[nH]c(=O)c(=O)[nH]c2cc1S(=O)(=O)Nc1ccc(-c2ccc3[nH]ccc3c2)c(Cl)c1 [Compound 270, N-[3-chloro-4-(1H-indol-5-yl)phenyl]-7-methyl-2,3-dioxo-1,4-dihydroquinoxaline-6-sulfonamide]	30 to 100 nM	–	100 to 1000 nM	–
Cc1cc2[nH]c(=O)c(=O)[nH]c2cc1S(=O)(=O)Nc1ccc(-c2cccs2)c(Cl)c1 [Compound 24, N-(3-chloro-4-(thiophen-2-yl)phenyl)-7-methyl-2,3-dioxo-1,2,3,4-tetrahydroquinoxaline-6-sulfonamide]	30 to 100 nM	< 30 nM	–	–
O=c1[nH]c2cc(F)c(S(=O)(=O)Nc3ccc(-c4ccc(F)cc4)c(Cl)c3)cc2[nH]c1=O [Compound 18, N-(2-chloro-4′-fluoro-[1,1′-biphenyl]-4-yl)-7-fluoro-2,3-dioxo-1,2,3,4-tetrahydroquinoxaline-6-sulfonamide]	30 to 100 nM	< 30 nM	–	–
